The values below come from ChEMBL document CHEMBL5370571, “α-Synuclein Aggregation Inhibitory and Antiplasmodial Activity of Constituents from the Australian Tree Eucalyptus cloeziana” (J Nat Prod, 2023).

Molecules are shown by their SMILES. The source made the active and inactive calls. No cut-off for these calls is given here.

The target of data set [1] is Alpha-synuclein (Homo sapiens) (UniProt P37840). Description: Binding affinity to human alpha-synuclein expressed in Escherichia coli BL21 (DE3) at 100 uM incubated for 3 hrs by ETD Q-TOF ((+) HRESIMS) analysis.
Data set [2] relates to HEK293. Description: Cytotoxicity against HEK293 cells assessed as reduction in cell viability at 80 uM measured after 72 hrs by resazurin dye based fluorescence assay relative to control. It is filed as toxicity. The note with it: human, hek293, 72 h. On the technique in general: Alamar Blue is a resazurin reagent that responds to reducing activity.
The subject of data set [3] is Plasmodium falciparum. The experiment in a line: Antiplasmodial activity against ring stage drug-sensitive Plasmodium falciparum 3D7 assessed as inhibition of parasite growth incubated for 72 hrs by DAPI staining based assay. The data set is classed as functional, organism-based. To be noted: 3D7, 72 h.
Data set [4] in a line: Cytotoxicity against HEK293 cells assessed as reduction in cell viability measured after 72 hrs by resazurin dye based fluorescence assay. The data set is classed as toxicity. The note with it: human.
Data set [5] is described as follows: Selectivity index, ratio of IC50 for cytotoxicity against HEK293 cells to IC50 for antiplasmodial activity against ring stage drug-sensitive Plasmodium falciparum 3D7. The data set is classed as toxicity, cell-based. To be noted: human, HEK293 cells versus ring stage Plasmodium falciparum 3D7; read-out: Ratio IC50.
The test system of data set [6] is Plasmodium falciparum. The experiment in a line: Antiplasmodial activity against Plasmodium falciparum 3D7 assessed as inhibition of parasite growth. It is filed as functional, organism-based.
The subject of data set [7] is Staphylococcus aureus. The experiment in a line: Antibacterial activity against methicillin-susceptible Staphylococcus aureus ATCC 25923 at 64 ug/mL incubated for 16 to 18 hrs by resazurin dye based fluorescence assay. It is filed as functional, organism-based. The note with it: dose 64.0 µg/ml, time 16-18 hrs.
Data set [8] deals with Staphylococcus aureus. The experiment in a line: Antibacterial activity against methicillin-resistant Staphylococcus aureus ATCC 43300 at 64 ug/mL incubated for 16 to 18 hrs by resazurin dye based fluorescence assay. It is filed as functional, organism-based. To be noted: dose 64.0 µg/ml, time 16-18 hrs.
In data set [9] the test system is Pseudomonas aeruginosa. The experiment in a line: Antibacterial activity against Pseudomonas aeruginosa ATCC 27853 at 64 ug/mL incubated for 18 hrs by resazurin dye based fluorescence assay. It is filed as functional, organism-based. The note with it: dose 64.0 µg/ml.
For data set [10], the system named is Plasmodium falciparum. The experiment in a line: Antiplasmodial activity against ring stage drug-sensitive Plasmodium falciparum 3D7 assessed as inhibition of parasite growth at 40 uM incubated for 72 hrs by DAPI staining based assay. It is filed as functional, organism-based.
Data set [11] addresses Alpha-synuclein (Homo sapiens) (UniProt P37840). Description: Inhibition of human alpha-synuclein aggregation expressed in Escherichia coli BL21 (DE3) at 10:1 compound to protein molar ratio measured after 36 hrs by thioflavin T fluorescence assay relative to control. The note with it: concentration not given here.
For data set [12] the target is unchanged. Description: Inhibition of human alpha-synuclein aggregation expressed in Escherichia coli BL21 (DE3) at 400 uM measured after 36 hrs by thioflavin T fluorescence assay.

On to `CC(C)=CC(=O)[C@]1(O)[C@@H](O)C(C)(C)C(=O)C1(C)C`, for which the outcome in data set [1] was inactive.
As for `CC1(C)CC2=C(OO1)C(C)(C)C(=O)C(C)(C)C2=O`, the outcome in [1] was inactive. Also, the Activity result in [2] is “Non-Toxic”.
In the case of `COc1ccc(C[C@H](N)C(=O)N[C@H]2[C@@H](O)[C@H](n3cnc4c(N(C)C)ncnc43)O[C@@H]2CO)cc1` [PUROMYCIN], the IC50 in [3] came to 91 nM. In addition, in data set [4], the IC50 at 72 h is 837 nM. Besides, the selectivity ratio in [5] amounted to 9.2.
Take `CC(=O)O[C@@H]1C(C)(C)C(=O)C(C)(C)C(=O)[C@]1(O)CC(C)C`: the result in data set [1] was inactive.
Same read-out and setting: for `CC(C)(O)[C@@H]1CC[C@@]2(C)CCC[C@@](C)(O)[C@@H]2C1` the value was “inactive”.
As for `O=C1C=C(c2ccc(O)cc2)[C@@]2(O1)O[C@@]1(OC(=O)C=C1c1ccc(O)cc1)C(c1ccc(O)cc1)=C2c1ccc(O)cc1`, the IC50 in data set [6] is 5100 nM.
As for `CC(C)=C[C@@]1(O)C(=O)C(C)(C)C(=O)C(C)(C)[C@H]1OC(=O)C(C)C`, the outcome in data set [1], in data set [7], in [8] and in data set [9] was inactive. Moreover, in data set [3], the IC50 is 16000 nM. The Activity entry in data set [2] is on record as “Non-Toxic”. The selectivity ratio in data set [5] was more than 5.
`CC(C)CC[C@]1(O)[C@H](O)C(C)(C)[C@@H](O)C(C)(C)[C@@H]1O`: the result in data set [10] was inactive.
Consider `C[C@H]1[C@H](OC(=O)CCC(=O)O)O[C@@H]2O[C@@]3(C)CC[C@H]4[C@H](C)CC[C@@H]1[C@@]24OO3` [ARTESUNATE], for which the IC50 in [3] is 1.4 nM. Also, the Activity in [2] is 20%. Besides, the selectivity ratio in data set [5] came out at 1750.
As for `CC(C)C[C@@]1(O)C(=O)C(C)(C)C(=O)C(C)(C)[C@H]1OC(=O)C(C)C`, the result in data set [1], in [7], in [8] and in [9] was inactive. In addition, the half-inhibitory concentration (IC50) in data set [3] is 6600 nM. The Activity entry in data set [2] is on record as “Non-Toxic”. Further, the selectivity ratio in data set [5] was more than 12.1.
With `CC(C)CC(=O)c1c(O)c2c(c3c1O[C@@]1(C(C)C)OC4=C(C(=O)C(C)(C)C(=O)C4(C)C)[C@@H]31)OC1=C(C(=O)C(C)(C)C(=O)C1(C)C)[C@H]2CC(C)C`, the IC50 in [6] is 1000 nM.
For `CCc1nc(N)nc(N)c1-c1ccc(Cl)cc1` [PYRIMETHAMINE], the IC50 in data set [3] stood at 17 nM. In data set [2], the Activity is on record as 31%. In data set [5], the selectivity ratio stood at 588.
For `CC(C)C[C@]1(O)C(O)=C([C@@H](C2=C(O)C(C)(C)C(=O)C(C)(C)C2=O)C(C)C)C(=O)C([C@H](C2=C(O)C(C)(C)C(=O)C(C)(C)C2=O)C(C)C)=C1O`, the outcome in data set [1] was Active. Further, in [11], the inhibition was determined as 39.5%. Further, the inhibition entry in [12] was “inactive”. Besides, in data set [3], the half-inhibitory concentration (IC50) stood at 9500 nM. Further, the Activity result in data set [2] was “Non-Toxic”. In [5], the selectivity ratio was more than 8.4. Besides, the outcome in data set [7], in data set [8] and in data set [9] was inactive.
For the molecule `CC1(C)C=C2C(=O)C(C)(C)C(=O)C(C)(C)[C@@]2(O)OO1`, the outcome in data set [1] was inactive.
Consider `CC(C)CC(=O)c1c(O)c2c(c3c1O[C@@]1(C(C)C)OC4=C(C(=O)C(C)(C)C(=O)C4(C)C)[C@@H]31)OC1=C(C(=O)C(C)(C)C(=O)C1(C)C)[C@@H]2CC(C)C`, for which, in data set [6], the IC50 is more than 40000 nM.

As usually defined, the IC50 is the point on the concentration scale where inhibition reaches its midpoint. The term inhibition denotes the relative decrease from the control value, in per cent.
